# Reference: PMC7006908 (PLoS ONE, 2020)
# “And” between values parts separate entries of the source, which are not always exact repeats. Equal entries are not always repeated. Where two headings read alike, the source gives them in different places.
# Columns and labels:
# [1] = Long term stability of working solutions in methanol at -20°C; format: physicochemical; settings: for Acc. %, stored at -20ºC over 2 months (methanol): % of nominal
# [2] = Stability of deproteinized QCs in autosampler at 4 °C; format: physicochemical; settings: for Acc. %, T = 72 h in autosampler (4°C): % of nominal
# Description: (§1) Stability tests were conducted using QCs prepared in triplicate at each concentration (L, M, H): bench-top stability was investigated after 4 h at room temperature; stability of the deproteinized QCs was evaluated in autosampler set at 4 °C re-analysing the samples 24, 48, and 72 h after the first injection; freeze/thaw stability was assessed by analysing three freshly prepared aliquots of each QCs concentration, and then again after one and two freeze/thaw cycles.
# [3] = LC-MS/MS quantification of Cmin in plasma samples from breast cancer patients (clinical study CRO-2018-83); format: in vivo, human; settings: for concentration at 25 h / concentration at 1 week / concentration at 15 h / concentration at 30 h: human, plasma, oral; for concentration at 25 h / concentration at 1 week: 125 mg/day; for concentration at 25 h: patient 2, sample 3, PALBO 125 mg/day; for concentration at 1 week: patient 3, sample 4, PALBO 125 mg/day; for concentration at 15 h: patient 7, sample 9, PALBO 125 mg/day; for concentration at 30 h: patient 8, sample 10, RIBO 600 mg/day + LETRO 2.5 mg/day
# Description: Preparation of calibration curve and QCs samples was conducted through the following steps: 1) 5 μL of working solutions were added to 95 μL of blank human plasma (dilution 1:20) and vortexed for 10 s; 2) a 10 μL-aliquot of this mix was added with 80 μL of cold IS working solution (see “Standard solutions preparation” section), vortexed and then centrifuged for 15 min at 16200 g and 4°C; 3) 70 μL of the supernatant were transferred to a polypropylene tube for the following analysis. […] The preparation of patients’ samples was conducted as following: patient plasma was thawed at room temperature, vortexed for 10 s and centrifuged, for 10 min, at 3000 g and 4°C; 10 μL of plasma was then treated according to steps 2) and 3).
# The HPLC system was a SIL-20AC XR auto-sampler and LC-20AD UFLC XR pumps (Shimadzu, Tokyo, Japan). The mobile phases (MP) consisted of ultrapure water with 0.1% HCOOH (phase A) and methanol/isopropanol (9:1, v/v) with 0.1% HCOOH (phase B). The chromatographic separation was obtained on the Luna Omega Polar C18 column ([…], 100 Å, 50 x 2.1 mm) coupled with a Security Guard Cartridge (Polar, C18, 4 x 2.0 mm), both provided by Phenomenex (Castel Maggiore (BO), Italy). The mass spectrometry system used for the detection was an API 4000 triple quadrupole (AB SCIEX, Massachusetts, USA) with a TurboIonSpray source operating in positive ion mode. To optimize source and compound dependent parameters, solutions of each analyte at the concentration of 100 ng/mL were used with a flow rate of 20 μL/min. Data were processed with Analyst 1.6.3 and the quantification of the peaks was done with MultiQuant 2.1 (software package AB SCIEX).
# The exclusion criteria were to be non-collaborative and/or unreliable patients and refusal of informed consent. Patients were asked to periodically (every two months) collect plasma samples for the estimation of PALBO or RIBO and/or LETRO Cmin during their therapy treatment.
# Plasma was obtained immediately by centrifugation of the blood samples at 3000 g for 10 min at 4°C. Then the obtained plasma was split into two independent aliquots and stored at -80°C in two different freezers.
# At present, each of the 10 patients’ samples collected were quantified in 2 separate runs during 2 different working days, to further assess the reproducibility of the proposed method. In fact, as recently introduced in the last version of the FDA guideline, incurred samples re-analysis (ISR) is necessary to show the reliability of the reported analyte concentrations obtained with a bioanalytical method. ISR is conducted by repeating the analysis of a subset of patients’ samples in separate runs. The two analyses can be considered equivalent if the percentage difference [expressed as: (repeat-original)*100/mean] between the first and the second concentration measured is within ±20% for at least 67% of the samples [23, 24].
# [4] = Bench-top stability in human plasma, 4 h at room temperature; format: in vitro ADME
# Description: as §1
# [5] = Long term stability in human plasma at -80°C; format: in vitro ADME; settings: for Acc. %, stored at -80ºC over 2 months (plasma): % of nominal
# [6] = patients, cited from earlier work
# [7] = QC high: nominal 200.00 PALBO / 8000.00 RIBO / 400.00 LETRO ng/mL
# [8] = QC low: nominal 0.50 PALBO / 20.00 RIBO / 1.00 LETRO ng/mL
# [9] = QC medium: nominal 20.00 PALBO / 800.00 RIBO / 40.00 LETRO ng/mL
# [10] = deproteinized QC high: nominal 200.00 PALBO / 8000.00 RIBO / 400.00 LETRO ng/mL
# [11] = deproteinized QC low: nominal 0.50 PALBO / 20.00 RIBO / 1.00 LETRO ng/mL
# [12] = deproteinized QC medium: nominal 20.00 PALBO / 800.00 RIBO / 40.00 LETRO ng/mL
# [13] = reanalysis in second run, read-out: II quantif. plasma concentration (Cmin)
compound,measurement,setting,value
"CC(=O)c1c(C)c2cnc(Nc3ccc(N4CCNCC4)cn3)nc2n(C2CCCC2)c1=O [PALBO, Palbociclib]","Mean ± SD measured concentration, stored at -20ºC over 2 months (methanol)",[1]; [7],219.18 ± 9.46 ng/mL
same,"Acc. %, stored at -20ºC over 2 months (methanol)",[1]; [7],109.6%
same,"Mean ± SD measured concentration, stored at -20ºC over 2 months (methanol)",[1]; [8],0.52 ± 0.02 ng/mL
same,"Mean ± SD measured concentration, stored at -20ºC over 2 months (methanol)",[1]; [9],22.43 ± 0.63 ng/mL
same,"Mean ± SD measured concentration, T = 72 h in autosampler (4°C)",[2]; [10],215.60 ± 8.28 ng/mL
same,"Acc. %, T = 72 h in autosampler (4°C)",[2]; [10],107.8%
same,"Mean ± SD measured concentration, T = 72 h in autosampler (4°C)",[2]; [11],0.54 ± 0.02 ng/mL
same,"Acc. %, T = 72 h in autosampler (4°C)",[2]; [11],108.2%
same,"Mean ± SD measured concentration, T = 72 h in autosampler (4°C)",[2]; [12],21.10 ± 1.23 ng/mL
same,"Acc. %, T = 72 h in autosampler (4°C)",[2]; [12],105.5%
same,concentration at 25 h,"[3]; 25 h from last capsule intake, read-out: I quantif. plasma concentration (Cmin)",77.5 ng/mL
same,concentration at 25 h,[3]; [13],82.4 ng/mL
same,concentration at 1 week,"[3]; last PALBO intake 1 week before sampling, read-out: I quantif. plasma concentration (residual)",1.6 ng/mL
same,concentration at 1 week,"[3]; last intake 1 week before sampling, reanalysis in second run, read-out: II quantif. plasma concentration (residual)",1.5 ng/mL
same,concentration at 15 h,"[3]; LETRO 2.5 mg/day, last pill intake 15 h before sampling, read-out: I quantif. plasma concentration (Cmin)",97.9 ng/mL
same,concentration at 15 h,"[3]; LETRO 2.5 mg/day, reanalysis in second run, read-out: II quantif. plasma concentration (Cmin)",96.2 ng/mL
same,I quantif. plasma concentration (Cmin),"[3]; patient 1, sample 1, PALBO 125 mg/day",53.0 ng/mL
same,II quantif. plasma concentration (Cmin),"[3]; patient 1, sample 1, PALBO 125 mg/day, reanalysis in second run",55.9 ng/mL
same,I quantif. plasma concentration (Cmin),"[3]; patient 2, sample 2, PALBO 125 mg/day",76.9 ng/mL
same,II quantif. plasma concentration (Cmin),"[3]; patient 2, sample 2, PALBO 125 mg/day, reanalysis in second run",84.2 ng/mL
same,I quantif. plasma concentration (Cmin),"[3]; patient 4, sample 5, PALBO 100 mg/day",70.7 ng/mL
same,II quantif. plasma concentration (Cmin),"[3]; patient 4, sample 5, PALBO 100 mg/day, reanalysis in second run",74.3 ng/mL
same,I quantif. plasma concentration (Cmin),"[3]; patient 5, sample 6, PALBO 125 mg/day",39.5 ng/mL
same,II quantif. plasma concentration (Cmin),"[3]; patient 5, sample 6, PALBO 125 mg/day, reanalysis in second run",43.0 ng/mL
same,I quantif. plasma concentration (Cmin),"[3]; patient 5, sample 7, PALBO 125 mg/day",41.5 ng/mL
same,II quantif. plasma concentration (Cmin),"[3]; patient 5, sample 7, PALBO 125 mg/day, reanalysis in second run",46.1 ng/mL
same,I quantif. plasma concentration (Cmin),"[3]; patient 6, sample 8, PALBO 125 mg/day, LETRO 2.5 mg/day",69.7 ng/mL
same,II quantif. plasma concentration (Cmin),"[3]; patient 6, sample 8, PALBO 125 mg/day, LETRO 2.5 mg/day, reanalysis in second run",74.0 ng/mL
"CN(C)C(=O)c1cc2cnc(Nc3ccc(N4CCNCC4)cn3)nc2n1C1CCCC1 [RIBO, ribociclib]","Mean ± SD measured concentration, stored at -20ºC over 2 months (methanol)",[1]; [7],8522.63 ± 68.65 ng/mL
same,"Acc. %, stored at -20ºC over 2 months (methanol)",[1]; [7],106.5%
same,"Mean ± SD measured concentration, stored at -20ºC over 2 months (methanol)",[1]; [8],19.52 ± 0.30 ng/mL
same,"Acc. %, stored at -20ºC over 2 months (methanol)",[1]; [8],97.6%
same,"Mean ± SD measured concentration, stored at -20ºC over 2 months (methanol)",[1]; [9],885.44 ± 35.25 ng/mL
same,"Acc. %, stored at -20ºC over 2 months (methanol)",[1]; [9],110.7%
same,"Mean ± SD measured concentration, T = 4h (RT)",[4]; plasma QC high: nominal 200.00 PALBO / 8000.00 RIBO / 400.00 LETRO ng/mL,7218.92 ± 402.94 ng/mL
same,"Mean ± SD measured concentration, T = 4h (RT)",[4]; plasma QC low: nominal 0.50 PALBO / 20.00 RIBO / 1.00 LETRO ng/mL,18.86 ± 0.74 ng/mL
same,"Mean ± SD measured concentration, T = 4h (RT)",[4]; plasma QC medium: nominal 20.00 PALBO / 800.00 RIBO / 40.00 LETRO ng/mL,751.88 ± 27.56 ng/mL
same,"Mean ± SD measured concentration, T = 72 h in autosampler (4°C)",[2]; [10],8274.93 ± 207.29 ng/mL
same,"Acc. %, T = 72 h in autosampler (4°C)",[2]; [10],103.4%
same,"Mean ± SD measured concentration, T = 72 h in autosampler (4°C)",[2]; [11],21.24 ± 1.45 ng/mL
same,"Acc. %, T = 72 h in autosampler (4°C)",[2]; [11],106.2%
same,"Mean ± SD measured concentration, T = 72 h in autosampler (4°C)",[2]; [12],815.31 ± 36.72 ng/mL
same,"Acc. %, T = 72 h in autosampler (4°C)",[2]; [12],101.9%
same,"Mean ± SD measured concentration, stored at -80ºC over 2 months (plasma)",[5]; [7],7699.21 ± 117.73 ng/mL
same,"Acc. %, stored at -80ºC over 2 months (plasma)",[5]; [7],96.2%
same,"Mean ± SD measured concentration, stored at -80ºC over 2 months (plasma)",[5]; [8],21.10 ± 1.05 ng/mL
same,"Acc. %, stored at -80ºC over 2 months (plasma)",[5]; [8],105.5%
same,"Mean ± SD measured concentration, stored at -80ºC over 2 months (plasma)",[5]; [9],789.37 ± 28.89 ng/mL
same,"Acc. %, stored at -80ºC over 2 months (plasma)",[5]; [9],98.7%
same,concentration at 30 h,"[3]; 30 h from last pills intake, read-out: I quantif. plasma concentration (Cmin)",396 ng/mL
same,concentration at 30 h,[3]; [13],419 ng/mL
same,"in vivo RIBO plasma concentration (CV), Cmin, population mean",[6]; 20 (ref 19),711 ng/mL and 711 (72.9) ng/mL
same,"in vivo RIBO plasma concentration (CV), upper end of range",[6],3500 (65.8) ng/mL
